Laboratory results taken from ChEMBL document CHEMBL5096235, “In Silico Exploration and Biological Evaluation of Bispecific Peptides Derived from Anti-HER2 Antibodies and Peptide-Camptothecin Conjugates for HER2-Positive Breast Cancer” (J Med Chem, 2022).
The source made the active and inactive calls. The rule behind the calls is not given here. Residues, ends and D or L forms follow the SMILES beside them. *: point of attachment. S(CH2)2OCO2(CPT-20-yl) = CC[C@@]1(OC(=O)OCCS*)C(=O)OCc2c1cc1n(c2=O)Cc2cc3ccccc3nc2-1

How the values were obtained:
MDA-MB-231 = assay: Cytotoxicity against HER-negative human MDA-MB-231 cells assessed as inhibition of cell growth incubated for 48 hrs by MTT assay; format: functional, cell-based; conditions: MDA-MB-231, 48 h
[1] = Toxicity in nude mouse xenografted with human SK-BR-3 cells assessed as effect on total protein level at 8 micromol/kg, iv administered every 3 days for 14 days; format: organism-based; conditions: in vivo, 336 h, dose 8 µmol/kg, time 14 day
NCI-N87 = assay: Cytotoxicity against HER-positive human NCI-N87 cells assessed as inhibition of cell growth incubated for 48 hrs by MTT assay; format: functional, cell-based; conditions: NCI-N87, 48 h
[2] = target: T1, DNA topoisomerase 1 (Homo sapiens) (UniProt P11387); assay: Inhibition of topoisomerase 1 (unknown origin) assessed as relaxation of supercoiled plasmid pBR322 DNA at 10 uM preincubated for 20 mins followed by pBR322 DNA addition and measured after 30 mins by agarose gel electrophoresis analysis; conditions: time 50.0 min
T1 sequence (whole entry): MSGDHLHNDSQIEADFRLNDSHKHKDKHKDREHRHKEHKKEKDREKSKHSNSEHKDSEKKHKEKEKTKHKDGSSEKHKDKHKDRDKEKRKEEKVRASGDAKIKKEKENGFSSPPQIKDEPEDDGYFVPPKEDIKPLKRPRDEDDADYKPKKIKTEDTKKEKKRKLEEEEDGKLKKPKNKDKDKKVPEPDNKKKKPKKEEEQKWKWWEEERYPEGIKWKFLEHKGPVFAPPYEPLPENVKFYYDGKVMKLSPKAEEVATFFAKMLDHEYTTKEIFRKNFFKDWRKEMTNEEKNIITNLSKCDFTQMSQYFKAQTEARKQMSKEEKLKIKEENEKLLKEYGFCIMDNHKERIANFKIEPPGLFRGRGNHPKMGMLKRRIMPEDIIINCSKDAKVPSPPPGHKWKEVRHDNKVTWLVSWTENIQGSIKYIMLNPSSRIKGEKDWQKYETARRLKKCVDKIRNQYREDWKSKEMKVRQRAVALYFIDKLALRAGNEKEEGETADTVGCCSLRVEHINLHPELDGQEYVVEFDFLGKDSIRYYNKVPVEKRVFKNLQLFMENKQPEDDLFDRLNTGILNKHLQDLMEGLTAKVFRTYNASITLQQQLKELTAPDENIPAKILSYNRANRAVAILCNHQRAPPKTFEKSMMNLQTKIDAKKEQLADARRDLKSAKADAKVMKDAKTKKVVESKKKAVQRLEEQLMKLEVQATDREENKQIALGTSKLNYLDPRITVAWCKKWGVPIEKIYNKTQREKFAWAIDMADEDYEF

[3] = Toxicity in nude mouse xenografted with human SK-BR-3 cells assessed as heart damage at 8 micromol/kg, iv administered every 3 days for 14 days by H and E staining based analysis; format: organism-based; conditions: in vivo, 336 h, dose 8 µmol/kg, time 14 day
[4] = Toxicity in nude mouse xenografted with human SK-BR-3 cells assessed as lung damage at 8 micromol/kg, iv administered every 3 days for 14 days by H and E staining based analysis; format: organism-based; conditions: in vivo, 336 h, dose 8 µmol/kg, time 14 day
SK-BR-3 [5] = assay: Cytotoxicity against HER-positive human SK-BR-3 cells assessed as inhibition of cell growth incubated for 48 hrs by MTT assay; format: functional, cell-based; conditions: SK-BR-3, 48 h
SK-BR-3 [6] = assay: Induction of apoptosis in human SK-BR-3 cells assessed as dead cells at 2 uM incubated for 24 hrs by Annexin V-FITC/PI staining based flow cytometry analysis (Rvb= 1.21%); format: functional
SK-BR-3 [7] = assay: Induction of cell cycle arrest in human SK-BR-3 cells assessed as accumulation of cells at S phase at 1 uM incubated for 24 hrs by flow cytometry analysis (reference value: 23%); format: functional
[8] = Toxicity in nude mouse xenografted with human SK-BR-3 cells assessed as kidney damage at 8 micromol/kg, iv administered every 3 days for 14 days by H and E staining based analysis; format: organism-based; conditions: in vivo, 336 h, dose 8 µmol/kg, time 14 day
[9] = Toxicity in nude mouse xenografted with human SK-BR-3 cells assessed as effect on creatinine level at 8 micromol/kg, iv administered every 3 days for 14 days; format: organism-based; conditions: in vivo, 336 h, dose 8 µmol/kg, time 14 day
[10] = Toxicity in nude mouse xenografted with human SK-BR-3 cells assessed as effect on globulin level at 8 micromol/kg, iv administered every 3 days for 14 days; format: organism-based; conditions: in vivo, 336 h, dose 8 µmol/kg, time 14 day
SK-BR-3 [11] = assay: Induction of apoptosis in human SK-BR-3 cells assessed as dead cells at 1 uM incubated for 24 hrs by Annexin V-FITC/PI staining based flow cytometry analysis (Rvb= 1.21%); format: functional
[12] = Hemolytic activity in rat erythrocytes at 3.125 to 100 uM by microplate reader analysis relative to control; format: toxicity, cell-based, Erythrocyte; conditions: dose 3.125-100 µM, read-out: Activity

| Structure (SMILES) | IC50 (MDA-MB-231) | Activity [1] | IC50 (NCI-N87) | inhibition [2] | Activity [3] | Activity [4] | IC50 (SK-BR-3 [5]) | Activity (SK-BR-3 [6]) | Activity (SK-BR-3 [7]) | Activity [8] | Activity [9] | Activity [10] | Activity (SK-BR-3 [11]) | hemolysis at 100 µM [12] |
| --- | --- | --- | --- | --- | --- | --- | --- | --- | --- | --- | --- | --- | --- | --- |
| CC[C@H](C)[C@H](NC(=O)[C@@H](N)CCCNC(=N)N)C(=O)N[C@@H](CCCCN)C(=O)N1CCC[C@H]1C(=O)N[C@@H](CCCNC(=N)N)C(=O)N[C@@H](CCCCN)C(=O)NCC(=O)N[C@@H](Cc1ccc(O)cc1)C(=O)N[C@H](C(=O)N[C@@H](CCCNC(=N)N)C(=O)NCC(=O)N[C@@H](CSSCCOC(=O)O[C@]1(CC)C(=O)OCc2c1cc1n(c2=O)Cc2cc3ccccc3nc2-1)C(=O)NCC(=O)N[C@@H](CSSCCOC(=O)O[C@]1(CC)C(=O)OCC2=C1C=C1c3nc4ccccc4cc3NC1C2=O)C(=O)NC(=O)C[C@H](NC(=O)CN)C(=O)N1CCC[C@H]1C(=O)N[C@@H](CC(N)=O)C(=O)N[C@@H](Cc1c[nH]c2ccccc12)C(=O)NCC(=O)N[C@@H](CCCNC(=N)N)C(=O)N[C@@H](CO)C(=O)N[C@@H](Cc1c[nH]c2ccccc12)C(=O)N[C@@H](Cc1ccc(O)cc1)C(=O)N[C@@H](CC(N)=O)C(=O)N[C@@H](CCC(N)=O)C(=O)N[C@@H](CCCNC(=N)N)C(=O)N[C@@H](Cc1ccccc1)C(=O)N[C@@H](CCCCN)C(N)=O)[C@@H](C)O (stereo partly specified) | 7720 nM | Non-Toxic | 1780 nM | Active | Non-Toxic | Non-Toxic | 120 nM | 0.28% | 43.45% | Non-Toxic | Non-Toxic | Non-Toxic | 0.49% |  |
| CC[C@H](C)[C@H](NC(=O)[C@@H](N)CCCNC(=N)N)C(=O)N[C@@H](CCCCN)C(=O)N1CCC[C@H]1C(=O)N[C@@H](CCCNC(=N)N)C(=O)N[C@@H](CCCCN)C(=O)NCC(=O)N[C@@H](Cc1ccc(O)cc1)C(=O)N[C@H](C(=O)N[C@@H](CCCNC(=N)N)C(=O)NCC(=O)N[C@@H](CSSCCOC(=O)O[C@]1(CC)C(=O)OCc2c1cc1n(c2=O)Cc2cc3ccccc3nc2-1)C(=O)NCC(=O)N[C@@H](CC(N)=O)C(=O)N1CCC[C@H]1C(=O)N[C@@H](CC(N)=O)C(=O)N[C@@H](Cc1c[nH]c2ccccc12)C(=O)NCC(=O)N[C@@H](CCCNC(=N)N)C(=O)N[C@@H](CO)C(=O)N[C@@H](Cc1c[nH]c2ccccc12)C(=O)N[C@@H](Cc1ccc(O)cc1)C(=O)N[C@@H](CC(N)=O)C(=O)N[C@@H](CCC(N)=O)C(=O)N[C@@H](CCCNC(=N)N)C(=O)N[C@@H](Cc1ccccc1)C(=O)N[C@@H](CCCCN)C(N)=O)[C@@H](C)O (H-RIKPRKGYTRGC(S(CH2)2OCO2(CPT-20-yl))GNPNWGRSWYNQRFK-NH2) | 7600 nM | Non-Toxic | 3290 nM |  | Non-Toxic | Non-Toxic | 1470 nM | 0.64% | 39.2% | Non-Toxic | Non-Toxic | Non-Toxic | 0.26% | < 10% |
